According to patent US20080004302A1, “Novel Compounds” (ASTRAZENECA AB, priority 2006, published 2008):
Structures can show the parent of a compound that is named as a salt.

Key:
FGFR1 IIIc [1] = target: T1, FGFR1 IIIc (Homo sapiens, UniProt P11362); assay: Cell based inhibition of transiently expressed FGFR1 IIIc phosphorylation (Cos-1 cells); details: Cos-1 cells, phospho-FGFR1; upper bound of bin; read-out: IC50
T1 construct: host or cells: Cos-1
Protocol: (§1) This assay is designed to detect inhibitors of transiently expressed FGFR1 phosphorylation by antibody staining of fixed cells detected using ArrayScan technology.
(§2) To undertake the assay, Cos-1 cells were harvested at 90-95% confluence for cell transfection. For each 96-well plate, 24 ul Lipofectamine 2000 was added to 809 ul OptiMEM and incubated at room temperature for 5 minutes. […] Equal volumes of DNA and Lipofectamine 2000 were combined (DNA: Lipid=1:1.2 ratio) and incubated at room temperature for 20 minutes.
The harvested Cos-1 cells are counted using a coulter counter and diluted further with 1% FCS/DMEM to 2.5×10^5 cells/ml. For each 96-well, 8.33 ml cells were required. […] Media was removed from the wells using vacuum aspiration; cells were fixed by adding 50μl of 100% methanol to each well and incubated at room temperature for 20 minutes.
(§3) The plates were read on an Arrayscan (Cellomics).

FGFR1 IIIc [2] = target: T1, FGFR1 IIIc; assay: Cell based inhibition of transiently expressed FGFR1 IIIc phosphorylation via use of ECHO technology (Cos-1 cells); details: Cos-1 cells, phospho-FGFR1, ECHO dosing; upper bound of bin; read-out: IC50
Protocol: as §1
as §2, with “24μl” for “24 ul”
The harvested Cos-1 cells are counted using a coulter counter and diluted further with 1% FCS/DMEM to 2.5×10^5 cells/ml. For each 96-well, 8.33 ml cells were required. […] 70 μl of media was aspirated from the assay plate using the Quadra before the plate was transferred onto the ECHO 550. […] Compound transfer to the assay plate on the ECHO 550 was at concentration ranges 1)10 μM, 2) 3 μM, 3) 1 μM, 4) 0.3 μM, 5) 0.1 μM, 6) […].
The plates were gently tapped to mix compound in with the cell media and left to incubate at 37° C. with 5% CO2 for 1 hour.
Media was removed from the wells using vacuum aspiration; cells were fixed by adding 50 μl of 100% methanol to each well and incubated at room temperature for 20 minutes.
as §3

human IGF1R = target: T2, human IGF1R (Homo sapiens, UniProt P08069); assay: Inhibition of insulin-like growth factor-1 receptor phosphorylation in R+ cells; format: cell-based; details: 30 nM IGF1, read-out: IGF cell class
T2 construct: expressed in transfected cells; host or cells: R+ cells (R- mouse fibroblasts transfected with human IGF1R)
Protocol: This immunofluorescence end point cell assay measures the ability of a test compound to reduce the measured levels of IGF1R phosphorylation after IGF1 stimulation in R^+ cells. […] were derived by transfection of R^− mouse fibroblast cells with human IGF1R.
(+5% CO2) incubator for 30 minutes.
Following the compound treatment, the R^+ cells were stimulated with a final concentration of 30 nM IGF1 (Gropep 1M001) for 20 minutes at 37° C. […] Plates were incubated for 1 hour at room temperature. […] Additionally, in-house antibodies raised against phospho […] were also used at a suitable titre determined for each batch.
The plates were incubated at room temperature for one hour. […] After addition of 100 μl/well PBS the plates were sealed with a black seal.
The Green Fluorescent phospho IGF1R -associated signal in each well was measured using an Acumen Explorer HTS Reader (TTP Labtech Ltd., Cambridge). […] The instrument is a laser-scanning fluorescence microplate cytometer, which samples the well at regular intervals and uses threshold algorithms to identify all fluorescent intensities above the solution background without the need to generate and analyse an image. These fluorescent objects can be quantified and provide a measure of the phospho IGF1R levels in cells. Fluorescence dose response data obtained with each compound was exported into a suitable software package (such as Origin) to perform curve fitting analysis. Phospho-IGF1R levels in response to compound treatment versus stimulated and unstimulated controls were expressed as an IC50 value.

Erk phosphorylation = assay: Growth factor (bFGF) stimulated Erk phosphorylation in NIH 3T3 cells; details: Mus musculus, NIH3T3, NIH 3T3 cells, 3 ng/ml bFGF
FGFR1 kinase = FGFR1 kinase (Homo sapiens, UniProt P11362); assay: Kinase assay (using Caliper technology); format: biochemical; details: FGFR1 kinase, Caliper; upper bound of bin; read-out: IC50
Protocol: To determine inhibition of FGFR activity, kinase assays were conducted using Caliper technology.
Kinase activity assays were performed in Greiner 384-well low volume plates, with a total reaction volume of 12ul per well. […] The substrate for each assay was a custom peptide with fluorescent tag (13 amino acids in length) the sequence of which was specific for FGFR1 kinase.
Compounds were serially diluted in 5% (v/v) DMSO, before being added to assay plates.
Assay plates were incubated at room temperature for 1.5 h, before the reaction was stopped with the addition of buffer [comprising: 100 mM HEPES—pH7.5, 0.033% Brij-35, 0.22% Caliper Coating Reagent #3, 88mM EDTA, 5% DMSO]. Stopped assay plates were then read using the Caliper LabChip® LC3000 (which uses microfludics to measure a shift in mobility between fluorescent labelled peptide and the FGFR1 kinase—phosphorylated form of this peptide).

T2 sequence (P08069 31-1367): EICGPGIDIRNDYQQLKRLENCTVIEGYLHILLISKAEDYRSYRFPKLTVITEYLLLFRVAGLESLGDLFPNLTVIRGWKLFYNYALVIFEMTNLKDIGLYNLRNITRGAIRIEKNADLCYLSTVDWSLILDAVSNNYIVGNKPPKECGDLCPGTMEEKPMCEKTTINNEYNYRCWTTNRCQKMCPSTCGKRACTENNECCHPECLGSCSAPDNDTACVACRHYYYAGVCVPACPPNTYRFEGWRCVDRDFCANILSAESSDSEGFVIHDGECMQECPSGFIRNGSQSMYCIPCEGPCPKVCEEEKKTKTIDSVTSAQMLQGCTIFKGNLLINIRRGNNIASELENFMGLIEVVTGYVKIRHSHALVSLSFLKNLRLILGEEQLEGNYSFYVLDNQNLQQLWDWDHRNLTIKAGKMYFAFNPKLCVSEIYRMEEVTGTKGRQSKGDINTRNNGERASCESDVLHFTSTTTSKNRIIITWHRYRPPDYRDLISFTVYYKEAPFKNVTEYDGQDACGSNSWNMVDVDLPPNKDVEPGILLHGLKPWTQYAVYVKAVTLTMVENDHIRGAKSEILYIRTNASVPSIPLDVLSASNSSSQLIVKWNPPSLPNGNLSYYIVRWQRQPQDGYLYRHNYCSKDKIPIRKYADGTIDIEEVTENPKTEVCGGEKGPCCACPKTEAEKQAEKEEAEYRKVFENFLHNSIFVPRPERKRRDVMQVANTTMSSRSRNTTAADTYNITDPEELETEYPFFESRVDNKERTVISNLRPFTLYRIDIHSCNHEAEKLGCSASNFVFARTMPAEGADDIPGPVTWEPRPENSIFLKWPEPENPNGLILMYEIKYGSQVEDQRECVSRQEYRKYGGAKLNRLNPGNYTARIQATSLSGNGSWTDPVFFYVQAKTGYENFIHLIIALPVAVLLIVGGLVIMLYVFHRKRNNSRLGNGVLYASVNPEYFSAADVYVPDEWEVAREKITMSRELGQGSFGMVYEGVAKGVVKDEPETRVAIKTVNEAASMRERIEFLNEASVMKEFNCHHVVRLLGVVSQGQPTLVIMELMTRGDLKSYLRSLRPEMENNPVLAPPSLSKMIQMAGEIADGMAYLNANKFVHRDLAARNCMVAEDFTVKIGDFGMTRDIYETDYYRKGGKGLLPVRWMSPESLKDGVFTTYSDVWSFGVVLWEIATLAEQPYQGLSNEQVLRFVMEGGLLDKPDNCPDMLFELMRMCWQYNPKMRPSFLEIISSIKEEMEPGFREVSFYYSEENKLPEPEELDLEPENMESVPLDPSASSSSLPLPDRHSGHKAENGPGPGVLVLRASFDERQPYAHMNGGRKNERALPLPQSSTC
Chain of FGFR1 kinase (P11362 22-822): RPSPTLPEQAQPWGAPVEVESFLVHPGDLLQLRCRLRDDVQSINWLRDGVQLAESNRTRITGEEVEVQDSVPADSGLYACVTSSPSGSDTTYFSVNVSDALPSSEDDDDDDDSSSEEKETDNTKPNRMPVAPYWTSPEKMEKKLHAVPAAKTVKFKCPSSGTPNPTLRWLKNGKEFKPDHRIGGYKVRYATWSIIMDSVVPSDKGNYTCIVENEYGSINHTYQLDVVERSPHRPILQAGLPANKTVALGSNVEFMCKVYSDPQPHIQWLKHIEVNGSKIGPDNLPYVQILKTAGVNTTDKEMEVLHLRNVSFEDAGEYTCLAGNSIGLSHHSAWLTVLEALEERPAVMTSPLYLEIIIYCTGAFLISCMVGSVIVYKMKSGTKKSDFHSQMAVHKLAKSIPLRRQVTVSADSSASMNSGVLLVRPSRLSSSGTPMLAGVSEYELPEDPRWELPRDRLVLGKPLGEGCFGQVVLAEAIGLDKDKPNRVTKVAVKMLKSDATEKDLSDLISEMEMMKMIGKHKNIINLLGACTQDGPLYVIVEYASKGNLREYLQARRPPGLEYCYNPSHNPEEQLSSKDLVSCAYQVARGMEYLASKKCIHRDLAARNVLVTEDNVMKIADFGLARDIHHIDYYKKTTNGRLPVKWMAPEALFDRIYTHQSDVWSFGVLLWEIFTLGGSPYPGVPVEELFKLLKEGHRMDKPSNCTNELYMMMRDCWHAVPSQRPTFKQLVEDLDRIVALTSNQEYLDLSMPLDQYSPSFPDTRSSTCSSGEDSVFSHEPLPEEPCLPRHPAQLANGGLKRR
T1 sequence (P11362 22-822): as above

IC50 (FGFR1 IIIc [1]) [µM]	IC50 (FGFR1 IIIc [2]) [µM]	IC50 (human IGF1R) [µM]	IC50 (FGFR1 kinase) [µM]	Compound	IC50 (Erk phosphorylation) [µM]	IC50 (Erk phosphorylation; upper bound of bin) [µM]
< 0.2	< 1			Cc1cc(CNc2nccc(Nc3cc(C4CCCC4)[nH]n3)n2)on1 [Example 13, N′-(5-cyclopentyl-2H-pyrazol-3-yl)-N-[(3-methyl-1,2-oxazol-5-yl)methyl]pyrimidine-2,4-diamine]		
	< 1	> 10	< 0.2	COc1cc(OC)cc(OCc2cc(Nc3ccnc(NCc4cc(C)no4)n3)n[nH]2)c1 [Example 44, N′-[5-[(3,5-Dimethoxyphenoxy)methyl]-2H-pyrazol-3-yl]-N-[(3-methyl1,2-oxazol-5-yl)methyl]pyrimidine-2,4-diamine]	< 0.2	
< 10			< 1	COc1ccc(OC)c(CCc2cc(Nc3ccnc(NCc4cc(C)no4)n3)n[nH]2)c1 [Example 45, N′-[5-[2-(2,5-dimethoxyphenyl)ethyl]-2H-pyrazol-3-yl]-N-[(3-methyl1,2-oxazol-5-yl)methyl]pyrimidine-2,4-diamine]		
< 30		> 10	< 1	COc1ncc(CCc2cc(Nc3ccnc(NCc4cc(C)no4)n3)n[nH]2)c(OC)n1 [Example 60, N′-[5-[2-(2,4-dimethoxypyrimidin-5-yl)ethyl]-1H-pyrazol-3-yl]-N-[(3-methyl-1,2-oxazol-5-yl)methyl]pyrimidine-2,4-diamine]		
< 1		> 10	< 0.2	COc1cccc(CCc2cc(Nc3ccnc(NCc4cc(CO)no4)n3)[nH]n2)c1 [Example 61, [5-[[[4-[[5-[2-(3-methoxyphenyl)ethyl]-2H-pyrazol-3-yl]amino]pyrimidin-2-yl]amino]methyl]-1,2-oxazol-3-yl]methanol]		
	< 10		< 0.2	CNC(=O)c1cc(CNc2nccc(Nc3cc(OC(C)C)n[nH]3)n2)on1 [Example 79, N-methyl-5-[[[4-[(5-propan-2-yloxy-2H-pyrazol-3-yl)amino]pyrimidin-2-yl]amino]methyl]1,2-oxazole-3-carboxamide]		< 10
	< 1		< 0.2	CC(C)Oc1cc(Nc2ccnc(NCc3cc(-c4ncccn4)no3)n2)n[nH]1 [Example 82, N′-(5-propan-2-yloxy-2H-pyrazol-3-yl)-N-[(^3-pyrimidin-2-yl-1,2-oxazol-5-yl)methyl]pyrimidine-2,4-diamine]		< 1
	< 1		< 0.2	CC(C)Oc1cc(Nc2ccnc(NCc3cc(C4CCCO4)no3)n2)[nH]n1 (stereo not drawn) [Example 84, N-[[3-(oxolan-2-yl)1,2-oxazol-5-yl]methyl]-N′-(5-propan-2-yloxy-2H-pyrazol-3-yl)pyrimidine-2,4-diamine]	< 0.2	
		> 10	< 10	Cc1cc(CNc2nccc(Nc3cc(OCc4cccc(C(=O)N5CCOCC5)c4)[nH]n3)n2)on1 [Example 90, [3-[[5-[[2-[(3-methyl1,2-oxazol-5-yl)methylamino]pyrimidin-4-yl]amino]-1H-pyrazol-3-yl]oxymethyl]phenyl]-morpholin-4-yl-methanone]		< 10
		> 10	< 10	Cc1cc(CNc2nccc(Nc3cc(OCc4cccc(C#N)c4)[nH]n3)n2)on1 [Example 92, 3-[[5-[[2-[(3-methyl1,2-oxazol-5-yl)methylamino]pyrimidin-4-yl]amino]-2H-pyrazol-3-yl]oxymethyl]benzonitrile hydrochloride]		< 1
		> 10	< 10	Cc1cc(CNc2nccc(Nc3cc(OCc4ccc(C(F)(F)F)cc4)[nH]n3)n2)on1 [Example 96, N-[(3-methyl1,2-oxazol-5-yl)methyl]-N′-[5-[[4-(trifluoromethyl)phenyl]methoxy]-1H-pyrazol-3-yl]pyrimidine-2,4-diamine hydrochloride]		< 10
		1 to 10	< 1	Cc1cc(CNc2nccc(Nc3cc(-c4cccs4)[nH]n3)n2)on1 [Example 104, N-[(3-methyl1,2-oxazol-5-yl)methyl]-N′-(5-thiophen-2-yl-1H-pyrazol-3-yl)pyrimidine-2,4-diamine]		< 1
		1 to 10	< 1	Cc1cc(CNc2nccc(Nc3cc(CCc4nc(-c5ccccc5)no4)[nH]n3)n2)on1 [Example 106, N-[(3-methyl1,2-oxazol-5-yl)methyl]-N′-[5-[2-(3-phenyl-1,2,4-oxadiazol-5-yl)ethyl]-2H-pyrazol-3-yl]pyrimidine-2,4-diamine]		< 1
		> 10	< 0.2	Cc1cc(CNc2nccc(Nc3cc(CCc4ccco4)[nH]n3)n2)on1 [Example 107, N′-[5-[2-(2-furyl)ethyl]-2H-pyrazol-3-yl]-N-[(3-methyl1,2-oxazol-5-yl)methyl]pyrimidine-2,4-diamine]		< 1
		> 10	< 10	Cc1cc(CNc2nccc(Nc3cc(C4CCOCC4)[nH]n3)n2)on1 [Example 114, N-[(3-methyl1,2-oxazol-5-yl)methyl]-N′-[5-(oxan-4-yl)-1H-pyrazol-3-yl]pyrimidine-2,4-diamine hydrochloride]		< 10
		> 10	< 1	Cc1cc(CNc2nccc(Nc3cc(CCc4cccnc4)[nH]n3)n2)on1 [Example 115, N-[(3-methyl1,2-oxazol-5-yl)methyl]-N′-[5-(2-pyridin-3-ylethyl)-2H-pyrazol-3-yl]pyrimidine-2,4-diamine]		< 10
< 30		> 10	< 10	Cc1cc(CNc2nccc(Nc3cc(CCc4ccncc4)[nH]n3)n2)on1 [Example 116, N-[(3-methyl-1,2-oxazol-5-yl)methyl]-N′-[5-(2-pyridin-4-ylethyl)-2H-pyrazol-3-yl]pyrimidine-2,4-diamine]		
< 30			< 10	Cc1cc(CNc2nccc(Nc3cc(CCc4cn(C)cn4)[nH]n3)n2)on1 [Example 119, N′-[5-[2-(1-methylimidazol-4-yl)ethyl]-1H-pyrazol-3-yl]-N-[(3-methyl-1,2-oxazol-5-yl)methyl]pyrimidine-2,4-diamine]		
< 30			< 1	Cc1cc(CNc2nccc(Nc3cc(CCc4ccc(CN(C)C)o4)[nH]n3)n2)on1 [Example 121, N′-[5-[2-[5-(dimethylaminomethyl)-2-furyl]ethyl]-1H-pyrazol-3-yl]-N-[(3-methyl-1,2-oxazol-5-yl)methyl]pyrimidine-2,4-diamine]		
